Like-named read-outs stand apart in the source and are kept apart here.
Columns and labels:
Format in all cases: binding
HLA-A*02:01 = HLA-A*02:01 (Homo sapiens, UniProt P04439, D140Y/D185E/D98H/E176V/E277Q/G131W/G231S/I119V/I121R/I166T/I218V/L300P/L318F/N151K/N90K/P208A/P217A/Q86G/Q94H/R138H/R169H/T345S); conditions: plate-bound monomer 0.5 µg/ml, duplicated experiments, positive binder >40%
HLA-A*24:02 = HLA-A*24:02 (Homo sapiens, UniProt P04439, D101N/D140Y/D185E/E176V/E190D/F33S/G103R/G107R/I119L/I121M/I306V/K335N/L105A/L180Q/L300P/N151K/N90K/Q86E/Q94H/R106L/R138H/R89G/T104I/T345S/V100E/W191G/Y123F); conditions: duplicated experiments, positive binder >40%
HLA-B*07:02 = HLA-B*07:02 (Homo sapiens, UniProt P01889); conditions: percent relative the binding of positive control peptide […]; duplicated experiments; positive binder >40%
HLA-A*30:02 [1] = target: T1, HLA-A*30:02 (Homo sapiens, UniProt P04439, D101N/D140H/D185E/E176R/F33S/G80R/H175R/K168Q/Q94H/R138E/R41S/V100E); conditions: duplicated experiments, positive binder >40%
HLA-C*07:01 = HLA-C*07:01 (Homo sapiens, UniProt P10321, K90N/S123Y); conditions: duplicated experiments, positive binder >40%
HLA-A*68:01 [2] = target: T2, HLA-A*68:01 (Homo sapiens, UniProt P04439, A269V/D185E/E176V/E277Q/E87N/F33Y/G231S/I121M/I166T/I218V/L180W/L300P/L318F/N151K/P208A/P217A/Q86R/R169H/T345S)
HLA-B*58:01 [3] = target: T3, HLA-B*58:01 (Homo sapiens, UniProt P01889, A329T/C349S/D201E/D98Y/E176V/E187L/E204Q/E69T/G107R/I218V/I90N/K202T/L105A/L119I/N104I/N87E/Q89R/Q94S/R106L/R155S/R180L/R86G/S101N/S121R/S35A/S48A/T118I/V127L/V306I/V36M/Y140S/Y91M); conditions: duplicated experiments, positive binder >40%
HLA-A*68:01 [4] = target: T2, HLA-A*68:01; conditions: time points 0-8 h
HLA-A*68:01 [5] = target: T2, HLA-A*68:01; conditions: duplicated experiments, positive binder >40%
HLA-A*30:01 = HLA-A*30:01 (Homo sapiens, UniProt P04439, D140H/D185E/E176W/F33S/G80R/H175R/K168Q/R138E/R41S); conditions: duplicated experiments, positive binder >40%
HLA-A*30:02 [6] = target: T1, HLA-A*30:02
HLA-A*30:02 [7] = target: T1, HLA-A*30:02; conditions: time points 0-8 h
HLA-B*58:01 [8] = target: T3, HLA-B*58:01
HLA-B*58:01 [9] = target: T3, HLA-B*58:01; conditions: time points 0-8 h
[10] = percent relative the binding of positive control peptide FLPSDFFPSV
[11] = percent relative the binding of positive control peptide RYLKDQQLL
[12] = percent relative the binding of positive control peptide KIQNFRVYY
[13] = percent relative the binding of positive control peptide KYFDEHYEY
[14] = peptide titrated 10−4 to 10−9 M
[15] = percent relative the binding of positive control peptide IAMESIVIW
[16] = percent relative the binding of positive control peptide KTGGPIYKR
[17] = percent relative the binding of positive control peptide KTKDIVNGL
[18] = percent relative the binding of positive control peptide […]

| Substance | Bind B*07:02 (HLA-B*07:02) | O-rate A*68:01 (t1/2) (HLA-A*68:01 [4]) | Bind A*02:01 (HLA-A*02:01; [18]) | Bind A*24:02 (HLA-A*24:02; [18]) | Bind A*30:02 (HLA-A*30:02 [1]; [18]) | Bind C*07:01 (HLA-C*07:01; [18]) | Aff A*68:01 (ED50) (HLA-A*68:01 [2]) | Bind B*58:01 (HLA-B*58:01 [3]; [18]) | Bind A*68:01 (HLA-A*68:01 [5]; [18]) | Bind A*30:01 (HLA-A*30:01; [18]) | other results |
| --- | --- | --- | --- | --- | --- | --- | --- | --- | --- | --- | --- |
| EAYQGVQQK [Rv3875_49–57] | 10% | 7.5 h | – | – | – | – | – | – | – | – | Bind A*02:01 (HLA-A*02:01; [10]): 0%; Bind A*24:02 (HLA-A*24:02; [11]): 0%; Bind A*30:02 (HLA-A*30:02 [1]; [12]): 0%; Bind C*07:01 (HLA-C*07:01; [13]): 0%; Aff A*68:01 (ED50) (HLA-A*68:01 [2]; [14]): 4e-08 M; Bind B*58:01 (HLA-B*58:01 [3]; [15]): 0%; Bind A*68:01 (HLA-A*68:01 [5]; [16]): 74%; Bind A*30:01 (HLA-A*30:01; [17]): 0% |
| AMGDAGGYK | 8% | 3.2 h | 31% | 0% | 80% | 0% | 5e-07 M | 0% | 94% | 28% | Aff A*30:02 (ED50) (HLA-A*30:02 [6]): 700 nM; O-rate A*30:02 (t1/2) (HLA-A*30:02 [7]): 1.6 h |
| ANTMAMMAR [Rv0288_78–86] | – | 2.4 h | – | – | – | 12% | 3e-06 M | 0% | 147% | – | – |
| MAMMARDTA [Rv0288_81–89] | – | 2.0 h | – | – | – | 19% | 5e-06 M | 23% | 96% | – | – |
| DW YSPACGK | 0% | 0.6 h | 10% | 0% | 0% | 0% | 2E -07 M | 0% | 136% | 11% | – |
| WGAQLNAMK | 0% | 2.4 h | 7% | 0% | 67% | 5% | 3E -07 M | 0% | 153% | 0% | – |
| LPQW LSANR | 31% | 4.1 h | 6% | 26% | 0% | 0% | 6E -08 M | 0% | 167% | 29% | – |
| EAAASAIQG [Rv3875_12–20] | 5% | 0.8 h | – | – | – | – | – | – | – | – | Bind A*02:01 (HLA-A*02:01; [10]): 0%; Bind A*24:02 (HLA-A*24:02; [11]): 0%; Bind A*30:02 (HLA-A*30:02 [1]; [12]): 0%; Bind C*07:01 (HLA-C*07:01; [13]): 0%; Aff A*68:01 (ED50) (HLA-A*68:01 [2]; [14]): 8e-07 M; Bind B*58:01 (HLA-B*58:01 [3]; [15]): 0%; Bind A*68:01 (HLA-A*68:01 [5]; [16]): 59%; Bind A*30:01 (HLA-A*30:01; [17]): 0% |
| EANTMAMMA [Rv0288_77–85] | – | 1.9 h | – | – | – | 3% | 0.0007 M | 0% | 83% | – | – |
| QSSFYSDWY | 0% | 0.4 h | 0% | 0% | 90% | 22% | 1E -06 M | 39% | 82% | 0% | Aff A*30:02 (ED50) (HLA-A*30:02 [6]): 600 nM; O-rate A*30:02 (t1/2) (HLA-A*30:02 [7]): 2.2 h |
| NGT HSWEYW | 4% | – | 0% | 42% | 83% | 3% | – | 74% | 35% | 0% | Aff B*58:01 (ED50) (HLA-B*58:01 [8]): 4E -08 M; Aff A*30:02 (ED50) (HLA-A*30:02 [6]): 1000 nM; O-rate B*58:01 (t1/2) (HLA-B*58:01 [9]): 1.9 h; O-rate A*30:02 (t1/2) (HLA-A*30:02 [7]): 1.6 h |
| LTKLAAAWG [Rv3875_36-44] | 6% | – | – | – | – | – | – | – | – | – | Aff B*58:01 (ED50) (HLA-B*58:01 [8]; [14]): 7e-07 M; Bind A*02:01 (HLA-A*02:01; [10]): 15%; Bind A*24:02 (HLA-A*24:02; [11]): 0%; Bind A*30:02 (HLA-A*30:02 [1]; [12]): 0%; Bind C*07:01 (HLA-C*07:01; [13]): 13%; Bind B*58:01 (HLA-B*58:01 [3]; [15]): 47%; Bind A*68:01 (HLA-A*68:01 [5]; [16]): 21%; Bind A*30:01 (HLA-A*30:01; [17]): 13%; O-rate B*58:01 (t1/2) (HLA-B*58:01 [9]): 1.2 h |
| AVFNFPPNG | 0% | 0.2 h | 69% | 23% | 101% | 1% | 8E -09 M | 33% | 81% | 21% | Aff A*30:02 (ED50) (HLA-A*30:02 [6]): 3000 nM; O-rate A*30:02 (t1/2) (HLA-A*30:02 [7]): 0.3 h |
| NTMAMMARD [Rv0288_79–87] | – | 2.3 h | – | – | – | 0% | 7e-05 M | 0% | 67% | – | – |
| SLTKLAAAW [Rv3875_35–43] | 5% | – | – | – | – | – | – | – | – | – | Aff B*58:01 (ED50) (HLA-B*58:01 [8]; [14]): 4e-07 M; Bind A*02:01 (HLA-A*02:01; [10]): 47%; Bind A*24:02 (HLA-A*24:02; [11]): 12%; Bind A*30:02 (HLA-A*30:02 [1]; [12]): 50%; Bind C*07:01 (HLA-C*07:01; [13]): 8%; Bind B*58:01 (HLA-B*58:01 [3]; [15]): 48%; Bind A*68:01 (HLA-A*68:01 [5]; [16]): 10%; Bind A*30:01 (HLA-A*30:01; [17]): 6%; O-rate B*58:01 (t1/2) (HLA-B*58:01 [9]): 0.9 h |
| TMAMMARDT [Rv0288_80–88] | – | 2.7 h | – | – | – | 0% | 6e-05 M | 0% | 47% | – | – |
| SSFYSDWYS | 0% | 0.1 h | 53% | 0% | 72% | 1% | 1e-07 M | 0% | 103% | 0% | – |
| AAGGHNAVF | 9% | – | 31% | 34% | 67% | 39% | – | 101% | 0% | 15% | Aff B*58:01 (ED50) (HLA-B*58:01 [8]): 2e-07 M; O-rate B*58:01 (t1/2) (HLA-B*58:01 [9]): 0.7 h |
| ETFLTSELP | 5% | 0.1 h | 25% | 2% | 0% | 0% | 7e-07 M | 16% | 103% | 4% | – |

Reference: publication PMC3608651, “A Broad Profile of Co-Dominant Epitopes Shapes the Peripheral Mycobacterium tuberculosis Specific CD8+ T-Cell Immune Response in South African Patients with Active Tuberculosis” (PLoS ONE, 2013)
